# Results from patent US4560662A, “Streptomyces antibioticus ATCC 31771 and process for obtaining same” (priority 1981, dated 1985).
# Read-outs that look alike come from different tables or passages of the source.
# Columns and labels:
# [1] = system: Staphylococcus aureus ATCC 6538 P; assay: Bacteriostatic power in solid medium (MIC), aerobic Gram positive; assay type: cell-based; settings: Staphylococcus aureus
# Escherichia coli LRP 50 = assay: Bacteriostatic power in solid medium (MIC), aerobic Gram negative; assay type: cell-based; settings: Escherichia coli, LRP50, read-out: minimum inhibiting concentration
# [2] = system: Mycoplasma hominis I ATCC 14097; assay: as above; assay type: cell-based; settings: Metamycoplasma hominis, ATCC14097, read-out: minimum inhibiting concentration
# [3] = system: Corynebacterium diphteriae LRP 24; assay: Bacteriostatic power in solid medium (MIC), aerobic Gram positive; assay type: cell-based; settings: Corynebacterium
# [4] = system: Haemophilus influenzae ATCC 19418; assay: Bacteriostatic power in solid medium (MIC), aerobic Gram negative; assay type: cell-based; settings: Haemophilus influenzae, ATCC19418, LRP 213, read-out: minimum inhibiting concentration
# Description: (§1) Turning now to an examination of the novel macrolide antibiotics produced according to the present invention, they are all characterized by a bacteriostatic spectrum like that of erythromycin and by the stability in acidic environment, whereby their direct administration by oral route is possible, without having recourse to esters and/or salts, showing the afore mentioned disadvantages and problems. The above is confirmed by the following Table 1, wherein the MIC values are reported, indicating the bacteriostatic power, and by the Table 2, giving the stability values in acidic environment. Without having to be construed in a limiting sense, it seems plausible that the greater stability of the macrolide. antibiotics of the present invention can be attributed to the presence in the molecule of the antibiotic of the neutral sugar oleandrose (J. Antib. (1976) XXIX (7), 728).
# (§2) Bacteriostatic power in solid medium of Erythromycin A, Erythromycin B,
# (§3) aerobic and anaerobic bacteria, Gram positive and Gram negative minimum
# (§4) inhibiting concentrations expressed in mcg/ml.
# [5] = system: Pseudomonas aeruginosa LRP 9; assay: as above; assay type: cell-based; settings: Pseudomonas aeruginosa, LRP9, read-out: minimum inhibiting concentration
# Description: as §1, §2, §3, §4
# Shigella sonnei LRP 5 = assay: as above; assay type: cell-based; settings: Shigella sonnei, LRP5, read-out: minimum inhibiting concentration
# Description: as §1, §2, §3, §4
# [6] = system: Streptococcus pyogenes LRP 197; assay: Bacteriostatic power in solid medium (MIC), aerobic Gram positive; assay type: cell-based; settings: Streptococcus pyogenes
# [7] = system: Bacteroides fragilis ATCC 23745; assay: Bacteriostatic power in solid medium (MIC), anaerobic; assay type: cell-based; settings: Bacteroides fragilis
# [8] = system: Staphylococcus aureus LRP 14; assay: Bacteriostatic power in solid medium (MIC), aerobic Gram positive; assay type: cell-based; settings: Staphylococcus aureus
# [9] = system: Micrococcus luteus ATCC 9341; assay: as above; assay type: cell-based; settings: Micrococcus luteus
# [10] = system: Fusobacterium necrophorum ATCC 27852; assay: Bacteriostatic power in solid medium (MIC), anaerobic; assay type: cell-based; settings: Fusobacterium necrophorum
# [11] = system: Streptococcus pneumonieae ATCC 6303; assay: Bacteriostatic power in solid medium (MIC), aerobic Gram positive; assay type: cell-based; settings: Streptococcus
# [12] = system: Acholeplasma laidlawii ATCC 23206; assay: Bacteriostatic power in solid medium (MIC), aerobic Gram negative; assay type: cell-based; settings: Acholeplasma laidlawii
# [13] = system: Streptococcus faecalis LRP 7; assay: Bacteriostatic power in solid medium (MIC), aerobic Gram positive; assay type: cell-based; settings: Enterococcus faecalis
# Salmonella typhi LRP 8 = assay: Bacteriostatic power in solid medium (MIC), aerobic Gram negative; assay type: cell-based; settings: Salmonella enterica, TYPHI, read-out: minimum inhibiting concentration
# [14] = system: Klebsiella pneumoniae LRP 54; assay: as above; assay type: cell-based; settings: Klebsiella pneumoniae, LRP54, read-out: minimum inhibiting concentration
# [15] = system: Proteus vulgaris ATCC 6380; assay: as above; assay type: cell-based; settings: Proteus vulgaris, ATCC6380, read-out: minimum inhibiting concentration
# [16] = system: Streptococcus pneumonieae LRP 53; assay: Bacteriostatic power in solid medium (MIC), aerobic Gram positive; assay type: cell-based; settings: Streptococcus
# [17] = system: Micrococcus luteus ATCC 15957; assay: as above; assay type: cell-based; settings: Micrococcus luteus, ATCC15957, LRP 193, Erythromicina resistant, read-out: minimum inhibiting concentration
# Description: as §1, §2, §3, §4
# [18] = system: Staphylococcus aureus ATCC 14154; assay: as above; assay type: cell-based; settings: Staphylococcus aureus, ATCC14154, LRP 78, Erythromicina resistant, read-out: minimum inhibiting concentration
# Description: as §1, §2, §3, §4
# [19] = system: Clostridium perfrigens ATCC 3624; assay: Bacteriostatic power in solid medium (MIC), anaerobic; assay type: cell-based; settings: Clostridium, ATCC3624, LRP 206, read-out: minimum inhibiting concentration
# [20] = system: Streptococcus pyogenes ATCC 8668; assay: Bacteriostatic power in solid medium (MIC), aerobic Gram positive; assay type: cell-based; settings: Streptococcus pyogenes
# [21] = system: Streptococcus faecalis sub. zymogenes ATCC 12958; assay: as above; assay type: cell-based; settings: Enterococcus faecalis
# Bacillus subtilis LRP 25 = assay: as above; assay type: cell-based; settings: Bacillus subtilis
# [22] = system: Neisseria Gonorrhoeae ATCC 19424; assay: Bacteriostatic power in solid medium (MIC), aerobic Gram negative; assay type: cell-based; settings: Neisseria gonorrhoeae
# [23] = system: Streptococcus pneumonieae LRP 52; assay: Bacteriostatic power in solid medium (MIC), aerobic Gram positive; assay type: cell-based; settings: Streptococcus
# [24] = known; cited from earlier work
# [25] = Relative solubility in water phase (extraction, TLC and HPLC control); assay type: physicochemical; settings: relative to P 15148, P 15149 and P 15153; alkaline aqueous phase
# Description: Before each extraction the pH of the aqueous phase is brought again to 9.
# physchem = assay type: physicochemical; settings: acidic environment
# Description: t 1/2 represents the half life time of the antibiotics as determined by
# high pressure liquid phase chromatography (HPLC).
# [26] = ATCC6538, read-out: minimum inhibiting concentration
# [27] = LRP24, read-out: minimum inhibiting concentration
# [28] = LRP197, read-out: minimum inhibiting concentration
# [29] = ATCC23745, read-out: minimum inhibiting concentration
# [30] = LRP14, read-out: minimum inhibiting concentration
# [31] = ATCC9341, read-out: minimum inhibiting concentration
# [32] = ATCC27852, read-out: minimum inhibiting concentration
# [33] = ATCC6303, read-out: minimum inhibiting concentration
# [34] = ATCC23206, read-out: minimum inhibiting concentration
# [35] = LRP7, read-out: minimum inhibiting concentration
# [36] = LRP53, read-out: minimum inhibiting concentration
# [37] = ATCC8668, read-out: minimum inhibiting concentration
# [38] = ATCC12958, read-out: minimum inhibiting concentration
# [39] = LRP25, read-out: minimum inhibiting concentration
# [40] = ATCC19424, read-out: minimum inhibiting concentration
# [41] = LRP52, read-out: minimum inhibiting concentration
Compound,MIC (Escherichia coli LRP 50) [µg/mL],MIC [2] [µg/mL],MIC [4] [µg/mL],MIC [5] [µg/mL],MIC (Shigella sonnei LRP 5) [µg/mL],MIC (Salmonella typhi LRP 8) [µg/mL],MIC [14] [µg/mL],MIC [15] [µg/mL],MIC [17] [µg/mL],MIC [18] [µg/mL],MIC [19] [µg/mL],"MIC [1, 26] [µg/mL]","MIC [3, 27] [µg/mL]","MIC [6, 28] [µg/mL]","MIC [7, 29] [µg/mL]","MIC [8, 30] [µg/mL]","MIC [9, 31] [µg/mL]","MIC [10, 32] [µg/mL]","MIC [11, 33] [µg/mL]","MIC [12, 34] [µg/mL]",also measured
"CO[C@H]1C[C@H](O[C@H]2[C@H](C)[C@@H](O[C@@H]3O[C@H](C)C[C@H](N(C)C)[C@H]3O)[C@@H](C)C[C@@]3(CO3)C(=O)[C@H](C)[C@@H](O)[C@@H](C)[C@@H](C)OC(=O)[C@@H]2C)O[C@@H](C)[C@@H]1O [oleandomycin, reference compound]",> 25,> 25,> 25,> 25,> 25,> 25,> 25,> 25,> 25,> 25,3.12,–,–,–,–,–,–,–,–,–,"MIC ([1]; ATCC6538, solid medium, LRP 39, read-out: minimum inhibiting concentration): 0.39 µg/mL; MIC ([3]; LRP24, solid medium, LRP 24, read-out: minimum inhibiting concentration): 0.097 µg/mL; MIC ([6]; LRP197, solid medium, LRP 197, read-out: minimum inhibiting concentration): 0.195 µg/mL; MIC ([7]; ATCC23745, solid medium, LRP 205, anaerobic, read-out: minimum inhibiting concentration): 0.39 µg/mL; MIC ([8]; LRP14, solid medium, LRP 14, Penycilline resistant, read-out: minimum inhibiting concentration): 0.39 µg/mL; MIC ([9]; ATCC9341, solid medium, LRP 6, read-out: minimum inhibiting concentration): 0.049 µg/mL; MIC ([10]; ATCC27852, solid medium, LRP 210, anaerobic, read-out: minimum inhibiting concentration): 6.25 µg/mL; MIC ([11]; ATCC6303, solid medium, LRP 35, read-out: minimum inhibiting concentration): 0.195 µg/mL; MIC ([12]; ATCC23206, solid medium, LRP 204, read-out: minimum inhibiting concentration): 6.25 µg/mL; MIC ([13]; LRP7, solid medium, LRP 7, read-out: minimum inhibiting concentration): 1.56 µg/mL; MIC ([16]; LRP53, solid medium, LRP 53, read-out: minimum inhibiting concentration): 0.195 µg/mL; MIC ([20]; ATCC8668, solid medium, LRP 34, read-out: minimum inhibiting concentration): 0.195 µg/mL; MIC ([21]; ATCC12958, solid medium, LRP 61, read-out: minimum inhibiting concentration): 1.56 µg/mL; MIC (Bacillus subtilis LRP 25; LRP25, solid medium, LRP 25, read-out: minimum inhibiting concentration): 0.39 µg/mL; MIC ([22]; ATCC19424, solid medium, LRP 214, read-out: minimum inhibiting concentration): 0.195 µg/mL; MIC ([23]; LRP52, solid medium, LRP 52, read-out: minimum inhibiting concentration): 0.195 µg/mL; toxicity [24]: high toxicity"
"CO[C@H]1C[C@H](O[C@H]2[C@H](C)[C@@H](O[C@@H]3O[C@H](C)C[C@H](N(C)C)[C@H]3O)[C@](C)(O)C[C@@H](C)C(=O)[C@H](C)[C@@H](O)[C@@H](C)[C@@H](CCO)OC(=O)[C@@H]2C)O[C@@H](C)[C@@H]1O [P 15150, 3-O-oleandrosyl-5-O-desosaminyl-15-hydroxyerythronolide B]",> 25,> 25,> 25,> 25,> 25,25,> 25,> 25,> 25,> 25,6.25,3.12,0.097,0.097,> 25,3.12,0.195,> 25,0.195,6.25,"MIC [13, 35]: 6.25 µg/mL; solubility in water phase [25]: more soluble than the others in water phase; MIC [16, 36]: 0.39 µg/mL; half-life (physchem; pH 2, read-out: t 1/2): > 100 h; half-life (physchem; pH 3, read-out: t 1/2): > 100 h; half-life (physchem; pH 4, read-out: t 1/2): > 100 h; MIC [20, 37]: 0.097 µg/mL; MIC [21, 38]: 3.12 µg/mL; MIC (Bacillus subtilis LRP 25; [39]): 3.12 µg/mL; MIC [22, 40]: 0.195 µg/mL; MIC [23, 41]: 0.195 µg/mL"
"CC[C@H]1OC(=O)[C@H](C)[C@@H](O[C@H]2C[C@H](OC)[C@@H](O)[C@H](C)O2)[C@H](C)[C@@H](O[C@@H]2O[C@H](C)C[C@H](N(C)C)[C@H]2O)[C@](C)(O)C[C@](C)(O)C(=O)[C@H](C)[C@@H](O)[C@H]1C [P 15148, 3-O-oleandrosyl-5-O-desosaminyl-(8S)-8-hydroxyerythronolide B]",> 25,> 25,> 25,> 25,> 25,25,> 25,> 25,> 25,> 25,25,1.56,0.097,0.195,6.25,1.56,0.049,> 25,0.195,6.25,"MIC [13, 35]: 0.78 µg/mL; MIC [16, 36]: 0.097 µg/mL; half-life (physchem; pH 2): 27 h; half-life (physchem; pH 3, read-out: t 1/2): > 100 h; half-life (physchem; pH 4, read-out: t 1/2): > 100 h; MIC [20, 37]: 0.195 µg/mL; MIC [21, 38]: 0.78 µg/mL; MIC (Bacillus subtilis LRP 25; [39]): 0.78 µg/mL; MIC [22, 40]: 1.56 µg/mL; MIC [23, 41]: 0.195 µg/mL"
